In patent US9499550B2 (BRISTOL-MYERS SQUIBB COMPANY, priority 2012, dated 2016):

Assays:
[1] = tested on: HCV genotype 1a (H77 strain) replicon in HUH-7 cells; assay: HCV replicon luciferase reporter assay, genotype 1a; format: cell-based; settings: Hepatitis C virus, Huh-7, 72 h, HCV genotype 1a replicon luciferase assay, 3 days incubation, range class, read-out: LE_1a (EC50, range)
Method in brief: (§1)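 Replicon inhibition for both genotypes was measured as Renilla luciferase signal (EnduRen, 7.5 μM final, 2 h) after 3-day, 37° C exposure of replicon-bearing HUH-7 cells in 4% FCS DMEM, 0.5% DMSO. The 1b construct carries S1179I; the 1a H77 construct carries P1496L and S2204I. Twenty-point, 3-fold dilutions were fitted four-parametrically for EC50, and CC50 was taken from multiplexed Cell Titer-Blue.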

[2] = tested on: HCV genotype 1b (Con1) replicon in HUH-7 cells; assay: HCV replicon luciferase reporter assay, genotype 1b; format: cell-based; settings: Hepatitis C virus, Huh-7, 72 h, HCV genotype 1b replicon luciferase assay, 3 days incubation, range class, read-out: LE_1b (EC50, range)
Method in brief: as §1

SMILES | EC50 [1] [nM] | EC50 [2] [nM]
COc1ccc2c(O[C@@H]3C[C@H]4C(=O)N[C@]5(C(=O)NS(=O)(=O)C6(C)CC6)C[C@H]5/C=C\CC[C@@H](C)C[C@@H](C)[C@H](NC(=O)OC5(C(F)(F)F)COC5)C(=O)N4C3)nc(OC)cc2c1 [Compound 1141, 3-(trifluoromethyl)oxetan-3-yl ((2R,6S,7R,9R,13aS,14aR,16aS,Z)-2-((3,6-dimethoxyisoquinolin-1-yl)oxy)-7,9-dimethyl-14a-(((1-methylcyclopropyl)sulfonyl)carbamoyl)-5,16-dioxo-1,2,3,5,6,7,8,9,10,11,13a,14,14a,15,16,16a-hexadecahydrocyclopropa[e]pyrrolo[1,2-a][1,4]diazacyclopentadecin-6-yl)carbamate] | < 5.46 | < 5.46
COc1ccc2c(O[C@@H]3C[C@H]4C(=O)N[C@]5(C(=O)NS(=O)(=O)C6(CF)CC6)C[C@H]5/C=C\CC[C@@H](C)C[C@@H](C)[C@H](NC(=O)OC(C)(C)C(C)(F)F)C(=O)N4C3)nccc2c1 [Compound 1143, 3,3-difluoro-2-methylbutan-2-yl((2R,6S,7R,9R,13aS,14aR,16aS,Z)-14a-(((1-(fluoromethyl)cyclopropyl)sulfonyl)carbamoyl)-2-((6-methoxyisoquinolin-1-yl)oxy)-7,9-dimethyl-5,16-dioxo-1,2,3,5,6,7,8,9,10,11,13a,14,14a,15,16,16a-hexadecahydrocyclopropa[e]pyrrolo[1,2-a][1,4]diazacyclopentadecin-6-yl)carbamate] | 4.82 to 103 | < 5.46
COCCOc1cnc(O[C@@H]2C[C@H]3C(=O)N[C@]4(C(=O)NS(=O)(=O)C5(C)CC5)C[C@H]4/C=C\CC[C@H](C)C[C@@H](C)[C@H](NC(=O)OC(C)(C)C(F)(F)F)C(=O)N3C2)c2ccc(OC)cc12 [Compound 1144, 1,1,1-trifluoro-2-methylpropan-2-yl((2R,6S,7R,9S,13aS,14aR,16aS,Z)-2-((6-methoxy-4-(2-methoxyethoxyl)isoquinolin-1-yl)oxy)-7,9-dimethyl-14a-(((1-methylcyclopropyl)sulfonyl)carbamoyl)-5,16-dioxo-1,2,3,5,6,7,8,9,10,11,13a,14,14a,15,16,16a-hexadecahydrocyclopropa[e]pyrrolo[1,2-a][1,4]diazacyclopentadecin-6-yl)carbamate] | < 5.46 | < 5.46
COCCOc1cnc(O[C@@H]2C[C@H]3C(=O)N[C@]4(C(=O)NS(=O)(=O)C5(C)CC5)C[C@H]4/C=C\CC[C@@H](C)C[C@@H](C)[C@H](NC(=O)OC(C)(C)C(F)(F)F)C(=O)N3C2)c2ccc(OC)cc12 [Compound 1145, 1,1,1-trifluoro-2-methylpropan-2-yl((2R,6S,7R,9R,13aS,14aR,16aS,Z)-2-((6-methoxy-4-(2-methoxyethoxyl)isoquinolin-1-yl)oxy)-7,9-dimethyl-14a-(((1-methylcyclopropyl)sulfonyl)carbamoyl)-5,16-dioxo-1,2,3,5,6,7,8,9,10,11,13a,14,14a,15,16,16a-hexadecahydrocyclopropa[e]pyrrolo[1,2-a][1,4]diazacyclopentadecin-6-yl)carbamate] | < 5.46 | < 5.46
COCCOc1cnc(O[C@@H]2C[C@H]3C(=O)N[C@]4(C(=O)NS(=O)(=O)C5CC5)C[C@H]4/C=C\CC[C@H](C)C[C@@H](C)[C@H](NC(=O)OC(C)(C)C(F)(F)F)C(=O)N3C2)c2ccc(OC)cc12 [Compound 1146, 1,1,1-trifluoro-2-methylpropan-2-yl((2R,6S,7R,9S,13aS,14aR,16aS,Z)-14a-((cyclopropylsulfonyl)carbamoyl)-2-((6-methoxy-4-(2-methoxyethoxyl)isoquinolin-1-yl)oxy)-7,9-dimethyl-5,16-dioxo-1,2,3,5,6,7,8,9,10,11,13a,14,14a,15,16,16a-hexadecahydrocyclopropa[e]pyrrolo[1,2-a][1,4]diazacyclopentadecin-6-yl)carbamate] | < 5.46 | < 5.46
COCCOc1cnc(O[C@@H]2C[C@H]3C(=O)N[C@]4(C(=O)NS(=O)(=O)C5CC5)C[C@H]4/C=C\CC[C@@H](C)C[C@@H](C)[C@H](NC(=O)OC(C)(C)C(F)(F)F)C(=O)N3C2)c2ccc(OC)cc12 [Compound 1147, 1,1,1-trifluoro-2-methylpropan-2-yl((2R,6S,7R,9R,13aS,14aR,16aS,Z)-14a-((cyclopropylsulfonyl)carbamoyl)-2-((6-methoxy-4-(2-methoxyethoxyl)isoquinolin-1-yl)oxy)-7,9-dimethyl-5,16-dioxo-1,2,3,5,6,7,8,9,10,11,13a,14,14a,15,16,16a-hexadecahydrocyclopropa[e]pyrrolo[1,2-a][1,4]diazacyclopentadecin-6-yl)carbamate] | < 5.46 | < 5.46
COCCOc1cnc(O[C@@H]2C[C@H]3C(=O)N[C@]4(C(=O)NS(=O)(=O)C5(C)CC5)C[C@H]4/C=C\CC[C@H](C)C[C@@H](C)[C@H](NC(=O)OC(C)(C)C(C)(F)F)C(=O)N3C2)c2ccc(OC)cc12 [Compound 1148, 3,3-difluoro-2-methylbutan-2-yl((2R,6S,7R,9S,13aS,14aR,16aS,Z)-2-((6-methoxy-4-(2-methoxyethoxyl)isoquinolin-1-yl)oxy)-7,9-dimethyl-14a-(((1-methylcyclopropyl)sulfonyl)carbamoyl)-5,16-dioxo-1,2,3,5,6,7,8,9,10,11,13a,14,14a,15,16,16a-hexadecahydrocyclopropa[e]pyrrolo[1,2-a][1,4]diazacyclopentadecin-6-yl)carbamate] | < 5.46 | < 5.46
COCCOc1cnc(O[C@@H]2C[C@H]3C(=O)N[C@]4(C(=O)NS(=O)(=O)C5(C)CC5)C[C@H]4/C=C\CC[C@@H](C)C[C@@H](C)[C@H](NC(=O)OC(C)(C)C(C)(F)F)C(=O)N3C2)c2ccc(OC)cc12 [Compound 1149, 3,3-difluoro-2-methylbutan-2-yl((2R,6S,7R,9R,13aS,14aR,16aS,Z)-2-((6-methoxy-4-(2-methoxyethoxyl)isoquinolin-1-yl)oxy)-7,9-dimethyl-14a-(((1-methylcyclopropyl)sulfonyl)carbamoyl)-5,16-dioxo-1,2,3,5,6,7,8,9,10,11,13a,14,14a,15,16,16a-hexadecahydrocyclopropa[e]pyrrolo[1,2-a][1,4]diazacyclopentadecin-6-yl)carbamate] | < 5.46 | < 5.46
COCCOc1cnc(O[C@@H]2C[C@H]3C(=O)N[C@]4(C(=O)NS(=O)(=O)C5CC5)C[C@H]4/C=C\CC[C@H](C)C[C@@H](C)[C@H](NC(=O)OC(C)(C)C(C)(F)F)C(=O)N3C2)c2ccc(OC)cc12 [Compound 1150, 3,3-difluoro-2-methylbutan-2-yl((2R,6S,7R,9S,13aS,14aR,16aS,Z)-14a-((cyclopropylsulfonyl)carbamoyl)-2-((6-methoxy-4-(2-methoxyethoxyl)isoquinolin-1-yl)oxy)-7,9-dimethyl-5,16-dioxo-1,2,3,5,6,7,8,9,10,11,13a,14,14a,15,16,16a-hexadecahydrocyclopropa[e]pyrrolo[1,2-a][1,4]diazacyclopentadecin-6-yl)carbamate] | < 5.46 | < 5.46
COCCOc1cnc(O[C@@H]2C[C@H]3C(=O)N[C@]4(C(=O)NS(=O)(=O)C5CC5)C[C@H]4/C=C\CC[C@@H](C)C[C@@H](C)[C@H](NC(=O)OC(C)(C)C(C)(F)F)C(=O)N3C2)c2ccc(OC)cc12 [Compound 1151, 3,3-difluoro-2-methylbutan-2-yl((2R,6S,7R,9R,13aS,14aR,16aS,Z)-14a-((cyclopropylsulfonyl)carbamoyl)-2-((6-methoxy-4-(2-methoxyethoxyl)isoquinolin-1-yl)oxy)-7,9-dimethyl-5,16-dioxo-1,2,3,5,6,7,8,9,10,11,13a,14,14a,15,16,16a-hexadecahydrocyclopropa[e]pyrrolo[1,2-a][1,4]diazacyclopentadecin-6-yl)carbamate] | < 5.46 | < 5.46
COCCOc1cnc(O[C@@H]2C[C@H]3C(=O)N[C@]4(C(=O)NS(=O)(=O)C5(C)CC5)C[C@H]4/C=C\CC[C@H](C)C[C@@H](C)[C@H](NC(=O)OC(C)(C)C)C(=O)N3C2)c2ccc(OC)cc12 [Compound 1152, tert-butyl ((2R,6S,7R,9S,13aS,14aR,16aS,Z)-2-((6-methoxy-4-(2-methoxyethoxyl)isoquinolin-1-yl)oxy)-7,9-dimethyl-14a-(((1-methylcyclopropyl)sulfonyl)carbamoyl)-5,16-dioxo-1,2,3,5,6,7,8,9,10,11,13a,14,14a,15,16,16a-hexadecahydrocyclopropa[e]pyrrolo[1,2-a][1,4]diazacyclopentadecin-6-yl)carbamate] | < 5.46 | < 5.46
COCCOc1cnc(O[C@@H]2C[C@H]3C(=O)N[C@]4(C(=O)NS(=O)(=O)C5(C)CC5)C[C@H]4/C=C\CC[C@@H](C)C[C@@H](C)[C@H](NC(=O)OC(C)(C)C)C(=O)N3C2)c2ccc(OC)cc12 [Compound 1153, tert-butyl ((2R,6S,7R,9R,13aS,14aR,16aS,Z)-2-((6-methoxy-4-(2-methoxyethoxyl)isoquinolin-1-yl)oxy)-7,9-dimethyl-14a-(((1-methylcyclopropyl)sulfonyl)carbamoyl)-5,16-dioxo-1,2,3,5,6,7,8,9,10,11,13a,14,14a,15,16,16a-hexadecahydrocyclopropa[e]pyrrolo[1,2-a][1,4]diazacyclopentadecin-6-yl)carbamate] | < 5.46 | < 5.46
